Columns and labels:
Soil microorganisms [1] = assay: In situ soil degradation of corn stalk from treated corn plants (Example 10); conditions: two sprays of 20 mM, buried in soil six months, scale 9 to 0
Source text: Plants were cultivated in a greenhouse environment and modified precursors and control precursors were applied via a foliar spray. Treated plants were permitted to naturally mature, senesce and dry down. After dry down several centimeter long sections were taken from nodal and from internodal regions at the base of the stalk for further in situ soil treatment. After treatment, thin sections were made, stained and visually inspected. Observations were made with a dissecting or a light microscope.
(§1) Fertile sandy loam topsoil in a cultivated field that had been used for the sequential cultivation of corn for the prior two years constituted the in situ environment. The field was located in the town Ingleside on the Eastern Shore of Maryland. The tissue burial and recovery work was completed in multiple marked plots.
(§2) Staining intensity ratings were subjectively established on ten-point rating scales and used as qualitative rankings within each individual example. Unless otherwise indicated, staining for lignin present in bagasse was performed by both the phlorgluciol and hypochlorite/sulfite techniques and was rated subjectively on a ten-step scale, from most intense staining (9) to no staining (0). Staining for chitin present in the bagasse was also subjectively rated on a ten-step scale from most intense staining (9) to no staining (0). All staining techniques were performed in triplicate, unless otherwise indicated.
Treatment of corn plants included two sprays, both one month after seedling emergence and once at tasseling with a spray application of 20 mM of one of the chemicals listed in Table 7, i.e., cinnamic acid, 2,6-difluorocinnamic acid, 3-chlorocinnamic acid or 2-chloro-4-hydroxybenzaldehyde with a silicone spreader/sticker until runoff. Dried stalk samples were buried in soil, as described above, for six months from the March through August time period. All staining was done in quintuplicate.

Soil microorganisms [2] = assay: In situ soil degradation of bagasse from treated sugar cane (Example 9); conditions: 10 grams drench at 4 and 2 weeks before harvest, buried in soil six months, scale 9 to 0
Source text: as §1, §2
Sugar cane plants were treated four weeks and two weeks before harvest with drench applications of 10 grams of one of the chemicals listed in Table 6, i.e., cinnamic acid, 2,6-difluorocinnamic acid, 3-chlorocinnamic acid or 2-chloro-4-hydroxybenzaldehyde. Approximately, 10 g of extracted bagasse samples were mixed equally with sand, and the mixture placed into a nylon sack and buried approximately 6 inches below the ground. The samples were buried in such a fashion for six months from the March through August time period. All staining was done in quintuplicate.

white-rot fungus [3] = assay: White-rot fungus cultured on bagasse from treated sugar cane, lignin and chitin staining (Examples 5, 6, 8); format: cell-based, Phanerochaete chrysosporium; conditions: for Staining intensity Chitin / Staining intensity Lignin: fungus cultured three months, scale 9 to 0
Source text: (§3) Phanerochaete chrysosporium, a lignin degrading fungus, was maintained on potato dextrose agar (PDA). Lignin degradation studies employed culturing the fungus in a liquid mineral salt medium that contained treated plant materials, such as bagasse from a plant that had been treated with a modified precursor preparation. The bagasse in the medium comprised the sole source of organic carbon for support of fungal growth. One inoculum “loop,” a standard tool used in the preparation and culturing of microbes, was used to inoculate the medium.
as §2
Technique 1: Place sections in a drop of saturated, aqueous phloroglucinol in 20% HCl. Lignin appears as deep red (9) to light purple (1).
Technique 2: Place sections in commercial hypochlorite bleach for five minutes and transfer to a 1% solution of sodium sulfite. Lignin appears as a bright red cherry color (9) that fades to brown (1) in approximately 1 hour.
Technique: Sections are autoclaved in saturated KOH for 10 minutes to convert chitin to chitosan. Washed sections are placed in a few drops of iodine-potassium iodide solution (2 gm KI in 100 ml water and add 0.2 gm I2) in 1% sulfuric acid. Abundant amounts of chitosans appear dark violet (9) and a lower concentration as a light blue stain (1). Care should be exercised since cellulose may also stain under these conditions. For this reason, if necessary, cellulose can be removed by flooding with Schweitzer's reagent (saturated copper hydroxide in ammonium hydroxide) prior to iodine-potassium iodide treatment.
In similar fashion to Example 4, sugar cane plants were treated at four weeks and also at two weeks before harvest, with five grams of the modified precursors described above, by drenching the sugar cane roots. Bagasse samples were then obtained and approximately 10 g used in the following experiment.
In this experiment, white-rot fungus was cultured on the bagasse samples for three months. Specifically, P. chrysosporium was maintained on PDA and then added to a liquid mineral salt medium that contained the treated plant materials, such as treated bagasse. One inoculum “loop,” a standard tool used in the preparation and culturing of microbes, was used to inoculate the bagasse-containing medium. The medium with the bagasse comprised the only sole source of organic carbon for support of fungal growth. After culturing the fungus on the bagasse stored in the liquid medium, the bagasse was collected from the medium and then stained for lignin and chitin.
Sugar cane plants were treated with either 0.5 g, 5 g or 50 g of 2,6-difluorocinnamic acid or 3-cholorcinnamic acid four weeks prior to harvest and also at two weeks prior to harvest. Thus, the total dosage of each modified precursor is either 1 g, 10 g, or 100 g. White-rot fungus was then cultured on the extracted bagasse samples for three months and lignin and chitin staining performed.
Glyphosine (Sigma Aldrich) is commercially available as a sugarcane ripener for use several weeks before harvest. In this example, glyphosine, at one-fourth the label rate (i.e., approximately 4 oz per acre), was added to 3-chlorocinnamic acid during drench treatments of 5 gm, both four weeks and two weeks prior to harvest. The label rate of glyphosine was 16 oz. White-rot fungus was cultured on the bagasse samples for three months according to the methodology described in Example 2.

white-rot fungus [4] = assay: White-rot fungus cultured on corn stalk fibrous extract from treated corn (Example 11); format: cell-based, Phanerochaete chrysosporium; conditions: for Staining intensity Chitin / Staining intensity Lignin: corn stalk, fungus cultured three months, scale 9 to 0
Source text: as §3, §2
Glyphosate (Sigma Aldrich) is commercially available as a no-till herbicide for use with corn. In this example glyphosate at the one-fourth the label rate (i.e., approximately 3 oz per acre) was added to 3-chlorocinnamic acid. The label rate of glyphosate was 12 oz per acre. The glyphosate was applied through a spray treatment that included two sprays, both one month after seedling emergence and once at tasseling. The spray application was applied with a silicone spreader/sticker until runoff. White-rot fungus was cultured on potato dextrose agar and then use to inoculate a medium containing the corn stalk fibrous extract as described in Example 2 above. These samples were cultured under appropriate conditions for three months.

White rot fungus = White rot fungus cultured on plant samples treated with fungicidal candidates, lignin and chitin staining (Example 12 ii); format: cell-based, Phanerochaete chrysosporium; conditions: 100 ppm four weeks before harvest, fungus cultured three months, scale 9 to 0
Procedure: as §2
Tulip tree, White Pine and corn plants were treated with fungicidal candidates four weeks before harvest. White rot fungus (Phanerochaete chrysosporium) was then cultured on the plant samples for three months. Staining and quantification of lignin and chitin present in plant materials was performed as described above.

[5] = sugar cane bagasse, 5 g drench at 4 and 2 weeks before harvest
[6] = total dosage 1 gm (0.5 g at 4 and 2 weeks before harvest)
[7] = total dosage 10 gm (5 g at 4 and 2 weeks before harvest)
[8] = total dosage 100 gm (50 g at 4 and 2 weeks before harvest)
[9] = Example 8, 10 gm with Glyphosine at one-fourth the label rate
[10] = Example 8, 10 gm without glyphosine
[11] = two sprays of 20 mM with Glyphosate at one-fourth the label rate
[12] = two sprays of 20 mM, without glyphosate

## O=C(O)C=Cc1c(F)cccc1F [2,6-Difluorocinnamic Acid]
Soil microorganisms [1]
  Staining intensity Chitin: 6
  Staining intensity Lignin: 5
Soil microorganisms [2]
  Staining intensity Chitin: 4
  Staining intensity Lignin: 5
white-rot fungus [3]; [5]
  Staining intensity Chitin: 3
  Staining intensity Lignin: 5
white-rot fungus [3]; [6]
  Staining intensity Chitin: 5
  Staining intensity Lignin: 4
white-rot fungus [3]; [7]
  Staining intensity Chitin: 3
  Staining intensity Lignin: 6
white-rot fungus [3]; [8]
  Staining intensity Chitin: 2
  Staining intensity Lignin: 7

## O=Cc1ccc(O)cc1Cl [2-Chloro-4-hydroxybenzaldehyde]
Soil microorganisms [1]
  Staining intensity Chitin: 3
  Staining intensity Lignin: 6
Soil microorganisms [2]
  Staining intensity Chitin: 3
  Staining intensity Lignin: 6
white-rot fungus [3]; [9]
  Staining intensity Chitin: 2
  Staining intensity Lignin: 7
white-rot fungus [3]; [10]
  Staining intensity Chitin: 3
  Staining intensity Lignin: 6
white-rot fungus [3]; [5]
  Staining intensity Chitin: 4
  Staining intensity Lignin: 3

## O=Cc1cc(Br)c(O)c(Br)c1 [3,5-Dibromo-4-hydroxybenzaldehyde]
white-rot fungus [3]; [5]
  Staining intensity Chitin: 6
  Staining intensity Lignin: 5

## O=C(O)C=Cc1cccc(Cl)c1 [3-Cholorcinnamic Acid, 3-Cholorcinnamic acid]
Soil microorganisms [1]
  Staining intensity Chitin: 4
  Staining intensity Lignin: 7
Soil microorganisms [2]
  Staining intensity Chitin: 3
  Staining intensity Lignin: 6
white-rot fungus [4]; [11]
  Staining intensity Chitin: 2
  Staining intensity Lignin: 7
white-rot fungus [4]; [12]
  Staining intensity Chitin: 3
  Staining intensity Lignin: 6
white-rot fungus [3]; [9]
  Staining intensity Chitin: 2
  Staining intensity Lignin: 7
white-rot fungus [3]; [10]
  Staining intensity Chitin: 3
  Staining intensity Lignin: 5
white-rot fungus [3]; [5]
  Staining intensity Chitin: 7
  Staining intensity Lignin: 5
white-rot fungus [3]; [6]
  Staining intensity Chitin: 4
  Staining intensity Lignin: 4
white-rot fungus [3]; [7]
  Staining intensity Chitin: 2
  Staining intensity Lignin: 6
white-rot fungus [3]; [8]
  Staining intensity Chitin: 1
  Staining intensity Lignin: 7

## COC(=O)Nc1nc2ccccc2[nH]1 [Carbendazim, methyl-2-benzimidazole carbamate]
White rot fungus; Corn plant
  Intensity of Chitin Stain: 2
  Intensity of Lignin Stain: 8
White rot fungus; Tulip tree
  Intensity of Chitin Stain: 1
  Intensity of Lignin Stain: 8
White rot fungus; White Pine tree
  Intensity of Chitin Stain: 2
  Intensity of Lignin Stain: 7

## O=C(O)C=Cc1ccccc1 [Cinnamic Acid, reference compound]
Soil microorganisms [1]
  Staining intensity Chitin: 9
  Staining intensity Lignin: 0-1
Soil microorganisms [2]
  Staining intensity Chitin: 8
  Staining intensity Lignin: 1
white-rot fungus [3]; [5]
  Staining intensity Chitin: 9
  Staining intensity Lignin: 1

## O=C(O)CN(CP(=O)(O)O)CP(=O)(O)O [Glyphosine, reference compound]
white-rot fungus [3]; glyphosine at one fourth the label rate added to the modified precursor, sugar cane
  Effect on recalcitrance of lignin to biodegradation by white-rot fungi conferred by halogen-substituted precursors: increases the effectiveness

## CCCC1COC(Cn2cncn2)(c2ccc(Cl)cc2Cl)O1 (centres unmarked) [Propiconazole, 1-[[2-(2,4-dichlorophenyl)-4-propyl-1,3-dioxolan-2-yl]methyl]-1H-1,2,4-triazole]
White rot fungus; Corn plant
  Intensity of Chitin Stain: 1
  Intensity of Lignin Stain: 8
White rot fungus; Tulip tree
  Intensity of Chitin Stain: 2
  Intensity of Lignin Stain: 7
White rot fungus; White Pine tree
  Intensity of Chitin Stain: 1
  Intensity of Lignin Stain: 8

## c1ccc2[nH]c(-c3cscn3)nc2c1 [Thiabendazole, 2-(4-thiazolyl)benzimidazole]
White rot fungus; Corn plant
  Intensity of Chitin Stain: 1
  Intensity of Lignin Stain: 9
White rot fungus; Tulip tree
  Intensity of Chitin Stain: 1
  Intensity of Lignin Stain: 9
White rot fungus; White Pine tree
  Intensity of Chitin Stain: 2
  Intensity of Lignin Stain: 8

## O=C(O)C(F)=Cc1ccccc1 [alpha-Fluorocinnamic Acid]
white-rot fungus [3]; [5]
  Staining intensity Chitin: 6

## O=C(O)CNCP(=O)(O)O [glyphosate, Glyphosate, reference compound]
white-rot fungus [4]; glyphosate at one-fourth the label rate added to the spray, corn
  Effect on effectiveness of halogen-substituted precursor molecules in reducing lignin biodegradation by white-rot fungi: increases the effectiveness
